pEC50: −log10 of the molar value. Read-outs that look alike come from different tables or passages of the source. Where only a bound is given, the exact number is not on record here.

Experimental findings from patent US20260078130A1, “NAMPT MODULATORS, PREPARATIONS, AND USES THEREOF” (SIRONAX LTD., priority 2022, published 2026) are described below.

Assay [1] has as its system endogenous NAMPT in U2OS cells. The assay can be described thus: Cellular NAD+ modulation assay (NAD/NADH-Glo, U2OS cells). Format: cell-based. The settings on record: Homo sapiens; for maximal fold induction: read-out: Cellular Emax. The gist of the method:
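Endogenous NAMPT stimulation in U2OS cells treated with compound dilution series for 24 h at 37 °C. Cells lysed with DTAB base, acid-treated 15 min at 60 °C, neutralized, NAD+ read by NAD/NADH-Glo luminescence after 40 min at room temperature. EC50 and Emax (fold over DMSO) derived.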

Assay [2] concerns the target T1, human enzyme NAMPT (full length) (Homo sapiens, UniProt P43490).
T1 construct: human enzyme NAMPT (full length)
The assay can be described thus: NMN fluorescence biochemical assay (stimulation of NMN synthesis by NAMPT). The settings on record: for pEC50: concentration giving half-maximal activation, read-out: Enzymatic EC50; for Enzymatic Emax: fold change of maximal activation compared to DMSO. The gist of the method:
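Full-length human NAMPT (100 nM) was preincubated 15 min at 37 °C with compound in 50 mM Tris-HCl pH 7.5, 10 mM MgCl2, 2 mM DTT, then reacted 1 h at 37 °C with 50 μM NAM, 100 μM PRPP, 4 mM ATP (stated solution concentrations). NMN was derivatised with acetophenone/KOH then formic acid and read at Ex/Em 382/445 nm; EC50 and Emax (fold over DMSO) reported.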

The mark [3] stands for this setting: 24 hours incubation, cellular NAD+.
[4] abbreviates: NMN fluorescence assay, purified human NAMPT 100 nM.
The mark [5] stands for this setting: 24 hours incubation with compound.
Where [6] appears, read: NMN synthesis by purified human NAMPT (100 nM).

T1 sequence (P43490 whole entry): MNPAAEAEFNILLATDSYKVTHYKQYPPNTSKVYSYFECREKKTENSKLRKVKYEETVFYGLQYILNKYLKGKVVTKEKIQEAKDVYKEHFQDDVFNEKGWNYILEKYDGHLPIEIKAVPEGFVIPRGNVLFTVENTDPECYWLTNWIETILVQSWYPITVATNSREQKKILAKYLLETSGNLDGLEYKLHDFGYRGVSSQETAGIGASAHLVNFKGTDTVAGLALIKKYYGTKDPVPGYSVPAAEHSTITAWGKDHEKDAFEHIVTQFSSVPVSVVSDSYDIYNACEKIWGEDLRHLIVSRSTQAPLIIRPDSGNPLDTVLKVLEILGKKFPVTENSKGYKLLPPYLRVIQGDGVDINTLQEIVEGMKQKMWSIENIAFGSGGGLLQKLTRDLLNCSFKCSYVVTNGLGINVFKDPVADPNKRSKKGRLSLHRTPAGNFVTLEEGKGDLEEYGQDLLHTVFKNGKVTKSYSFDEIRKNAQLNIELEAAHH

Consider `O=C1NCC2(CC(CN3C(=O)c4ccccc4C3Cc3nnn(C4CC4)c3Cl)C2)O1` (stereo not shown) [Compound 471, 2-((1-((5-chloro-1-cyclopropyl-1H-1,2,3-triazol-4-yl)methyl)-3-oxoisoindolin-2-yl)methyl)-5-oxa-7-azaspiro[3.4]octan-6-one], for which, in assay [1] (setting [3]), the negative logarithm of the EC50 (pEC50) is more than 6.30 and the maximal fold induction was more than 1.5. Besides, the pEC50 in assay [2] (setting [4]) was 5.30 to 6.30. Moreover, the “Enzymatic Emax” value in assay [2] was “B (3≥B>2)”.
The corresponding values for `Cn1ncc(Cl)c1CC1c2cccc(Cl)c2C(=O)N1Cc1ccc2[nH]nnc2c1` (stereo not shown) [Compound 336, 2-((1H-benzo[d][1,2,3]triazol-5-yl)methyl)-7-chloro-3-((4-chloro-1-methyl-1H-pyrazol-5-yl)methyl)isoindolin-1-one] are more than 6.30, more than 1.5, more than 6.30 and “A (A>3)”.
The corresponding values for `Cn1ncc(Cl)c1CC1c2cc(CN3CCOCC3)ccc2C(=O)N1Cc1ccc2[nH]nnc2c1` (stereo not shown) [Compound 325, 2-((1H-benzo[d][1,2,3]triazol-5-yl)methyl)-3-((4-chloro-1-methyl-1H-pyrazol-5-yl)methyl)-5-(morpholinomethyl)isoindolin-1-one] are more than 6.30, more than 1.5, more than 6.30 and “A (A>3)”.
Turning to `COc1ccc(CN2C(=O)c3cnccc3C2Cc2c(C)ccnc2C#N)cc1` (stereo not shown) [Compound 621, 3-((2-(4-methoxybenzyl)-3-oxo-2,3-dihydro-1H-pyrrolo[3,4-c]pyridin-1-yl)methyl)-4-methylpicolinonitrile], in assay [1] (setting [3]), the pEC50 was 5.30 to 6.30 and the maximal fold induction is more than 1.5. In addition, the pEC50 in assay [2] (setting [4]) is not above 5.30. In addition, in assay [2], the “Enzymatic Emax” value is given as “B (3≥B>2)”.
Take `N#Cc1nccc(Br)c1CC1c2ccccc2C(=O)N1Cc1ccc2[nH]nnc2c1` (stereo not shown) [Compound 282, 3-((2-((1H-benzo[d][1,2,3]triazol-5-yl)methyl)-3-oxoisoindolin-1-yl)methyl)-4-bromopicolinonitrile]: the negative logarithm of the EC50 (pEC50) in assay [1] (setting [5]) and in assay [2] (setting [6]) was more than 6.30 in each case. Further, the maximal fold induction in assay [1] (setting [5]) was in the range of 1.2 to 1.5. Moreover, the “Enzymatic Emax” value in assay [2] is reported as “B (3≥B>2)”.
For the molecule `Cn1nnc(Cl)c1CC1c2ccccc2C(=O)N1CC1CC2(CNC(=O)O2)C1` (stereo not shown) [Compound 489, 2-((1-((4-chloro-1-methyl-1H-1,2,3-triazol-5-yl)methyl)-3-oxoisoindolin-2-yl)methyl)-5-oxa-7-azaspiro[3.4]octan-6-one], the pEC50 in assay [1] (setting [3]) and in assay [2] (setting [4]) was 5.30 to 6.30 throughout. The maximal fold induction in assay [1] (setting [3]) was more than 1.5. In addition, the “Enzymatic Emax” value in assay [2] is “B (3≥B>2)”.
With `Cc1ccccc1CC1c2cccnc2C(=O)N1Cc1ccc2[nH]c(=O)oc2c1` (stereo not shown) [Compound 160, 6-((5-(2-methylbenzyl)-7-oxo-5,7-dihydro-6H-pyrrolo[3,4-b]pyridin-6-yl)methyl)benzo[d]oxazol-2(3H)-one], the negative-log EC50 (pEC50) in assay [1] (setting [5]) and in assay [2] (setting [6]) was 5.30 to 6.30 each time. Moreover, the maximal fold induction in assay [1] (setting [5]) is more than 1.5. In assay [2], the “Enzymatic Emax” value is on record as “B (3≥B>2)”.
`COC1CCN(Cc2ccc3c(c2)[C@H](C)N(Cc2ccc4[nH]c(=O)oc4c2)C3=O)C1` (single isomer, unassigned) [Compound 188]: in assay [1] (setting [5]), the negative-log EC50 (pEC50) was 5.30 to 6.30 and the maximal fold induction is more than 1.5. In assay [2] (setting [6]), the negative-log EC50 (pEC50) was not above 5.30. Also, the “Enzymatic Emax” value in assay [2] is “B (3≥B>2)”.
With `Cn1nc(C(F)F)c(Cl)c1CC1c2ccccc2C(=O)N1Cc1ccc2[nH]nnc2c1` (stereo not shown) [Compound 361, 2-((1H-benzo[d][1,2,3]triazol-5-yl)methyl)-3-((4-chloro-3-(difluoromethyl)-1-methyl-1H-pyrazol-5-yl)methyl)isoindolin-1-one], in assay [1] (setting [3]), the negative logarithm of the EC50 (pEC50) is more than 6.30 and the maximal fold induction is more than 1.5. Moreover, the pEC50 in assay [2] (setting [4]) is more than 6.30. Also, the “Enzymatic Emax” value in assay [2] is on record as “B (3≥B>2)”.
`O=C1c2ccccc2CN1Cc1ccc(O)cc1` [Compound 12, 2-(4-hydroxybenzyl)isoindolin-1-one]: in assay [1] (setting [5]), the negative-log EC50 (pEC50) was 4.30 to 5.30 and the maximal fold induction was in the range of 1.2 to 1.5. For the same molecule, the negative logarithm of the EC50 (pEC50) in assay [2] (setting [6]) was not above 5.30. Further, the “Enzymatic Emax” value in assay [2] is on record as “B (3≥B>2)”.
On to `O=C1c2ccccc2C(Cc2ncccc2F)N1Cc1ccc2[nH]c(=O)oc2c1` (stereo not shown) [Compound 214, 6-((1-((3-fluoropyridin-2-yl)methyl)-3-oxoisoindolin-2-yl)methyl)benzo[d]oxazol-2(3H)-one], for which, in assay [1] (setting [5]), the negative-log EC50 (pEC50) is more than 6.30 and the maximal fold induction was more than 1.5. Besides, the pEC50 in assay [2] (setting [6]) was 5.30 to 6.30. Moreover, in assay [2], the “Enzymatic Emax” value is “A (A>3)”.
Turning to `O=C1c2ccc(N3CCOCC3)cc2C(Cc2ccccc2)N1Cc1ccc2[nH]c(=O)oc2c1` (stereo not shown) [Compound 97, 6-((3-benzyl-5-morpholino-1-oxoisoindolin-2-yl)methyl)benzo[d]oxazol-2(3H)-one], in assay [1] (setting [5]), the pEC50 is 5.30 to 6.30 and the maximal fold induction was more than 1.5. Besides, in assay [2] (setting [6]), the pEC50 was 5.30 to 6.30. In assay [2], the “Enzymatic Emax” value was “A (A>3)”.
In the case of `COc1ccc(CN2C(=O)c3ccc(C4CC4)cc3C2Cc2c(Cl)cnn2C)cn1` (stereo not shown) [Compound 623, 3-((4-chloro-1-methyl-1H-pyrazol-5-yl)methyl)-5-cyclopropyl-2-((6-methoxypyridin-3-yl)methyl)isoindolin-1-one], the results for the pEC50 in assay [1] (setting [3]) and in assay [2] (setting [4]) were 5.30 to 6.30 and not above 5.30, respectively. Besides, the maximal fold induction in assay [1] (setting [3]) is more than 1.5. In addition, the “Enzymatic Emax” value in assay [2] was “A (A>3)”.
Consider `CCCn1c2ccccc2c(=O)n1Cc1ccc(O)cc1` [Compound 25, 2-(4-hydroxybenzyl)-1-propyl-1,2-dihydro-3H-indazol-3-one], for which, in assay [1] (setting [5]), the pEC50 is 4.30 to 5.30 and the maximal fold induction was more than 1.5. For the same molecule, the negative-log EC50 (pEC50) in assay [2] (setting [6]) is not above 5.30. For the same molecule, in assay [2], the “Enzymatic Emax” value is given as “A (A>3)”.
On to `CNCc1ccc2c(c1)C(=O)N(Cc1ccc3[nH]nnc3c1)C2Cc1c(Cl)cnn1C` (stereo not shown) [Compound 422, 2-((1H-benzo[d][1,2,3]triazol-5-yl)methyl)-3-((4-chloro-1-methyl-1H-pyrazol-5-yl)methyl)-6-((methylamino)methyl)isoindolin-1-one], for which, in assay [1] (setting [3]), the pEC50 is 4.30 to 5.30 and the maximal fold induction lay within 1.2 to 1.5. Also, the negative-log EC50 (pEC50) in assay [2] (setting [4]) was not above 5.30. In assay [2], the “Enzymatic Emax” value is “B (3≥B>2)”.
`CCc1cccnc1CC1c2ccccc2C(=O)N1Cc1ccc2[nH]c(=O)oc2c1` (stereo not shown) [Compound 182, 6-((1-((3-ethylpyridin-2-yl)methyl)-3-oxoisoindolin-2-yl)methyl)benzo[d]oxazol-2(3H)-one]: in assay [1] (setting [5]), the pEC50 was 5.30 to 6.30 and the maximal fold induction was more than 1.5. Besides, the pEC50 in assay [2] (setting [6]) was 5.30 to 6.30. Also, in assay [2], the “Enzymatic Emax” value is on record as “A (A>3)”.
In the case of `O=C1c2ccc(C3CC3)cc2C(Cc2ncccc2Br)N1Cc1ccc2[nH]c(=O)oc2c1` (stereo not shown) [Compound 209, 6-((3-((3-bromopyridin-2-yl)methyl)-5-cyclopropyl-1-oxoisoindolin-2-yl)methyl)benzo[d]oxazol-2(3H)-one], the pEC50 in assay [1] (setting [5]) and in assay [2] (setting [6]) was more than 6.30 each time. Moreover, the maximal fold induction in assay [1] (setting [5]) was more than 1.5. Further, the “Enzymatic Emax” value in assay [2] is listed as “A (A>3)”.
Take `Cc1c(C#N)cccc1CC1c2ccccc2C(=O)N1Cc1ccc2[nH]c(=O)oc2c1` (stereo not shown) [Compound 174, 2-methyl-3-((3-oxo-2-((2-oxo-2,3-dihydrobenzo[d]oxazol-6-yl)methyl)isoindolin-1-yl)methyl)benzonitrile]: the results for the pEC50 in assay [1] (setting [5]) and in assay [2] (setting [6]) were 5.30 to 6.30 and more than 6.30, respectively. For the same molecule, the maximal fold induction in assay [1] (setting [5]) is more than 1.5. For the same molecule, the “Enzymatic Emax” value in assay [2] was “B (3≥B>2)”.
Consider `COc1ccc(CN2C(=O)c3c(F)cc(Cl)cc3C2Cc2c(Cl)cnn2C)cc1` (stereo not shown) [Compound 581, 5-chloro-3-((4-chloro-1-methyl-1H-pyrazol-5-yl)methyl)-7-fluoro-2-(4-methoxybenzyl)isoindolin-1-one], for which the pEC50 in assay [1] (setting [3]) and in assay [2] (setting [4]) was 5.30 to 6.30 throughout. Further, in assay [1] (setting [3]), the maximal fold induction lay within 1.2 to 1.5. Further, the “Enzymatic Emax” value in assay [2] was “A (A>3)”.
As for `COc1ccc(CN2C(=O)c3ccc(C4CC4)cc3C2Cc2c(Cl)cnn2C)cc1` (stereo not shown) [Compound 624, 3-((4-chloro-1-methyl-1H-pyrazol-5-yl)methyl)-5-cyclopropyl-2-(4-methoxybenzyl)isoindolin-1-one], in assay [1] (setting [3]), the negative logarithm of the EC50 (pEC50) was 5.30 to 6.30 and the maximal fold induction lay in the range of 1.2 to 1.5. The pEC50 in assay [2] (setting [4]) was 5.30 to 6.30. Also, the “Enzymatic Emax” value in assay [2] is “B (3≥B>2)”.
Consider `Cn1ncc(Cl)c1CC1c2ccccc2C(=O)N1CC#Cc1cn[nH]c1` (stereo not shown) [Compound 453, 2-(3-(1H-pyrazol-4-yl)prop-2-yn-1-yl)-3-((4-chloro-1-methyl-1H-pyrazol-5-yl)methyl)isoindolin-1-one], for which the negative-log EC50 (pEC50) in assay [1] (setting [3]) and in assay [2] (setting [4]) was more than 6.30 throughout. Further, the maximal fold induction in assay [1] (setting [3]) was more than 1.5. In addition, the “Enzymatic Emax” value in assay [2] is “B (3≥B>2)”.
As for `COc1ccc(CN2C(=O)c3ccccc3C2Cc2c(C)ccnc2C#N)cc1` (stereo not shown) [Compound 567, 3-((2-(4-methoxybenzyl)-3-oxoisoindolin-1-yl)methyl)-4-methylpicolinonitrile], in assay [1] (setting [3]), the negative-log EC50 (pEC50) is more than 6.30 and the maximal fold induction was more than 1.5. The pEC50 in assay [2] (setting [4]) is more than 6.30. Also, in assay [2], the “Enzymatic Emax” value was “B (3≥B>2)”.

The pEC50 is −log10 of the EC50, conventionally taken in molar units.
